Data published in the NIST ThermoML archive (doi:10.1016/j.jct.2013.06.020).

Assay: mn = molality of the nth substance listed, in mol/kg
Conditions: 298.15 K, 101 kPa, Liquid; for speed of sound: Sing-around technique in a fixed-path interferometer; for mass density: Vibrating tube method

COC(=O)CCC(C)=O [methyl levulinate] + O
Conditions	mass density [kg/m3]	speed of sound [m/s]
m1 = 0.0322	997.582	1499.2
m1 = 0.0375	997.646	1499.4
m1 = 0.0399	997.675	1499.7
m1 = 0.042	997.701	1499.7
m1 = 0.0537	997.774	1500
m1 = 0.0724	998.063	1500.9
m1 = 0.0737	998.08	1501
m1 = 0.1127	998.543	1503.2
m1 = 0.1571	999.079	1505.7
m1 = 0.1949	999.523	1507.7
m1 = 0.2491	1000.15	1510.6
m1 = 0.3297	1001.08	1514.6
m1 = 0.3905	1001.76	1517.5
m1 = 0.4721	1002.66	1521.3
m1 = 0.5562	1003.58	1525.1
m1 = 0.6293	1004.35	1527.8
m1 = 0.7107	1005.19	1530.9
m1 = 0.7782	1005.87	1533.4
m1 = 0.9597	1007.31	1539.2
m1 = 1.161	1008.76	1544.8

C=CC(=O)OC [methyl propenoate] + O
Conditions	mass density [kg/m3]	speed of sound [m/s]
m1 = 0.0393	997.315	1498.3
m1 = 0.0445	997.337	1498.7
m1 = 0.0475	997.348	1498.9
m1 = 0.0543	997.381	1499.1
m1 = 0.0631	997.409	1499.5
m1 = 0.0712	997.451	1499.9
m1 = 0.0962	997.547	1500.9
m1 = 0.1341	997.677	1502.1
m1 = 0.1473	997.72	1502.6
m1 = 0.1826	997.809	1503.8
m1 = 0.2485	998.068	1506.2
m1 = 0.3666	998.512	1510.6
m1 = 0.4288	998.73	1513.1
m1 = 0.5131	999.004	1516.7

CCCCOC(=O)C(C)O (stereo not drawn) [butyl 2-hydroxypropanoate] + O
Conditions	mass density [kg/m3]	speed of sound [m/s]
m1 = 0.0219	997.335	1498.8
m1 = 0.0262	997.377	1499.4
m1 = 0.0328	997.422	1499.9
m1 = 0.0399	997.472	1500.3
m1 = 0.0413	997.482	1500.5
m1 = 0.0444	997.503	1500.8
m1 = 0.0632	997.633	1502.3
m1 = 0.0659	997.652	1502.6
m1 = 0.0775	997.733	1503.7
m1 = 0.0915	997.826	1504.9
m1 = 0.1058	997.928	1506.1
m1 = 0.1167	998.001	1507
m1 = 0.1331	998.116	1508.4
m1 = 0.1551	998.265	1510.2
m1 = 0.1798	998.437	1512.2
m1 = 0.1979	998.576	1514
m1 = 0.2171	998.689	1515.5
m1 = 0.235	998.813	1516.7
m1 = 0.2647	999.004	1518.4
m1 = 0.2785	999.098	1519.4

Cc1ccc(C=O)o1 [5-methylfurfural] + O
Conditions	mass density [kg/m3]	speed of sound [m/s]
m1 = 0.0067	997.297	1497
m1 = 0.0069	997.3	1497
m1 = 0.0081	997.319	1497.1
m1 = 0.0083	997.323	1497.2
m1 = 0.0084	997.325	1497.2
m1 = 0.0098	997.344	1497.2
m1 = 0.0103	997.35	1497.2
m1 = 0.0109	997.355	1497.3
m1 = 0.0122	997.373	1497.3
m1 = 0.0137	997.397	1497.4
m1 = 0.016	997.425	1497.6
m1 = 0.0179	997.454	1497.7
m1 = 0.0223	997.516	1497.9
m1 = 0.0257	997.563	1498.1
m1 = 0.0292	997.613	1498.3
m1 = 0.0462	997.848	1499.2
m1 = 0.0557	997.966	1499.6
m1 = 0.0608	998.055	1500
m1 = 0.0825	998.35	1501.1
m1 = 0.1136	998.767	1503
m1 = 0.1363	998.986	1503.8
m1 = 0.1454	999.221	1504.2
m1 = 0.1666	999.516	1505.2
m1 = 0.204	1000.01	1506.9
m1 = 0.2877	1001.14	1511
